Measured values taken from PubChem BioAssay (NCI).
Where “and” joins values, the source holds several entries; their conditions need not be identical. Equal values may be shown once.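 All cell lines were grown in 96-well plates and treated with compound for 48 hours. GI50: concentration for 50% inhibition of growth. TGI is the concentration that stops growth completely.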

What was measured:
Experiment in all cases: growth of human tumour cells (NCI), 48 h
[1] = system: BT-549 breast
[2] = system: MDA-MB-231 breast
[3] = system: NCI-H226 lung
[4] = system: OVCAR-5 ovarian
[5] = system: SK-MEL-2 melanoma
[6] = system: SF-268 CNS
[7] = system: SNB-19 CNS
[8] = system: SK-OV-3 ovarian
[9] = system: CCRF-CEM leukemia
[10] = system: MALME-3M melanoma

| SMILES | GI50 [1] | TGI [1] | GI50 [2] [µM] | TGI [2] | GI50 [3] | TGI [3] | GI50 [4] [µM] | TGI [4] | GI50 [5] [µM] | TGI [5] | GI50 [6] [µM] | TGI [6] | GI50 [7] [µM] | TGI [7] | GI50 [8] [µM] | TGI [8] | GI50 [9] | TGI [9] | GI50 [10] [µM] | TGI [10] |
| --- | --- | --- | --- | --- | --- | --- | --- | --- | --- | --- | --- | --- | --- | --- | --- | --- | --- | --- | --- | --- |
| Cc1ccc(NC(=O)c2ccc(NC3=C(Cl)C(=O)N(Cc4ccccc4)C3=O)cc2)cc1Cl | 1.04 µM | 5.09 µM | 1.35 | 11.9 µM | 8.69 µM | 23.5 µM | 0.774 | 10.2 µM | 12.5 | 34.1 µM | 12.4 | 33.7 µM | 60.5 | > 100 µM | 22.7 | 54.6 µM | 1.02 µM | 3.54 µM | – | – |
| COC(=O)C1=Nc2ccc(F)cc2/C1=C/c1sc(=S)[nH]c1O | 0.161 µM | 3.31 µM | 0.358 | 4.26 µM | 0.959 µM | 10.3 µM | 0.91 | > 100 µM | 0.806 | 41 µM | 0.575 | 29.9 µM | 0.179 | > 52.9 µM | 0.513 | 31.3 µM | 0.133 µM | > 100 µM | 0.191 | 29 µM |
| CC1(C)N=C(N)N=C(N)N1c1ccc(OCCCCNC(=O)Nc2cccc(S(=O)(=O)F)c2)c(Cl)c1 | 12.5 µM | > 100 µM | 6.57 | > 100 µM | 7.95 µM | > 100 µM | 2.26 | > 100 µM | 13.6 | > 100 µM | 0.649 | > 100 µM | 2.91 | > 100 µM | > 100 | > 100 µM | 0.95 µM | > 100 µM | 29.6 | > 100 µM |
| CC/C(=C(/c1ccc(/C=C/C(=O)O)cc1)c1ccc2[nH]ncc2c1)c1ccc(F)cc1Cl | 7.79 µM | 22.7 µM | 16.2 | 34.6 µM | 19.3 µM | 47.6 µM | 17.5 | 35.9 µM | 10.2 | 27 µM | 11.9 | 27.4 µM | 12.9 | 31.2 µM | 16.7 | 30.8 µM | 8.37 µM | 30.7 µM | 18.6 | 44.9 µM |
| CN(C)CCS(=O)(=O)Nc1cc(-c2ccc3ncnc(Nc4ccc(F)c(Cl)c4)c3c2)cnc1Cl | 0.24 µM | 1.38 µM | 0.37 | 1.8 µM | 2.11 µM | > 100 µM | 0.268 | > 22.8 µM | 0.715 | 2.74 µM | 0.549 | > 100 µM | 1.91 | > 100 µM | 0.261 | 1.64 µM | 0.322 µM | > 37 µM | 0.114 | 0.666 µM |
| CCOC(=O)C1=CSC2=NC3=C(CCC/C3=C\c3cc(OC)c(OC)c(OC)c3)C(c3cc(OC)c(OC)c(OC)c3)N12 (configuration not stated) | 2.64 µM | > 100 µM | 3.2 | > 100 µM | 2.4 µM | > 100 µM | > 100 | > 100 µM | > 100 | > 100 µM | – | – | – | – | – | – | 0.47 µM | 3.74 µM | – | – |
| Cc1cc2c(cc1C)[n+](=O)c(C(=O)/C=C/c1ccccc1[N+](=O)[O-])c(C)n2[O-] | – | > 100 µM | – | > 100 µM | – | > 100 µM | – | > 100 µM | – | 55.2 µM | – | 74.9 µM | – | 42.3 µM | – | > 68.6 µM | – | > 100 µM | – | > 96.7 µM |
| N=C(N)c1ccc(OCCCCCOc2ccc(C(=N)N)cc2)cc1 | 6.65 µM and 3.41 µM and 11.1 µM | 14.1 µM and 16 µM and 25.3 µM | 8.69 | > 50 µM and 44.4 µM | 5.24 µM and 6.96 µM and 14.2 µM | > 50 µM and 30.2 µM and 58.8 µM | 34 | > 50 µM and 78.3 µM and > 100 µM | 7.11 | 16.9 µM and 47.1 µM and 22.4 µM | 4.48 | 13.6 µM and 34.2 µM and 37.7 µM | 2.79 | 24.5 µM and 54.6 µM and 32.3 µM | – | > 50 µM and 29.8 µM and 22.3 µM | 23.7 µM and 11.1 µM and 45.1 µM | > 50 µM and 60.1 µM and > 100 µM | 1.81 | 8.4 µM and 35.3 µM |
| O=C(Nc1ccc(Cl)c(C(F)(F)F)c1)C(=O)c1c(O)c2ccccc2oc1=O | – | > 100 µM | – | > 100 µM | – | > 100 µM | – | > 100 µM | – | > 100 µM | – | > 100 µM | – | > 100 µM | – | > 100 µM | – | > 100 µM | – | > 100 µM |
| CC(C)c1cc(C(C)C)c(Cl)c(Cl)c1O (tested in a mixture with another compound) | – | 40.1 µM | – | 46 µM | – | – | – | > 100 µM | – | 46.5 µM | – | 42.4 µM | – | 42.8 µM | – | – | – | > 100 µM | – | 52.9 µM |
| Nc1ccn([C@@H]2S[C@H](CO)[C@@H](O)[C@@H]2F)c(=O)n1 | 1.74 µM | > 100 µM | > 100 | > 100 µM | 0.485 µM | > 48.4 µM | 0.509 | > 100 µM | > 100 | > 100 µM | 0.26 | > 100 µM | 0.0581 | > 100 µM | 0.352 | > 100 µM | < 0.01 µM | > 100 µM | 1.52 | > 100 µM |
| O=C(CN(/C=C/C(=O)C(F)(F)F)c1ccccc1)c1ccc(F)cc1 | 31.5 µM | > 100 µM | 17.7 | 42.1 µM | 19.6 µM | 47.8 µM | 25.6 | 88.7 µM | 26.3 | 70.1 µM | 23.1 | 64.5 µM | 46 | > 100 µM | 55 | > 100 µM | 15.8 µM | 41.4 µM | 26.7 | 74.1 µM |
| CCN(CC)C(=O)CCCCCn1c2ccccc2c2c3c(c4c5ccccc5[nH]c4c21)C(=O)N(O)C3=O | 4.66 µM | 48.5 µM | 5.52 | 82.5 µM | 14.1 µM | 54.4 µM | 31.1 | > 100 µM | 3.38 | 12.1 µM | 3.97 | > 100 µM | 4.7 | > 100 µM | 22.2 | 92.1 µM | 3.07 µM | 21.9 µM | 8.2 | 65.7 µM |
| COc1cc2c(cc1OC)C(SC)C(=O)N(Cc1cccc(OC)c1OC)CC2 (configuration not stated) | – | 33.2 µM | – | > 100 µM | – | 26.8 µM | – | 98.3 µM | – | 19.1 µM | – | > 100 µM | – | > 100 µM | – | > 100 µM | – | > 55.6 µM | – | > 66.6 µM |
